Reference: the NIST ThermoML archive (doi:10.1021/je201009c)
Numbers after ± are expanded uncertainties.

Legend:
[1] = for surface tension liquid-gas: Capillary rise; for viscosity / mass density: Liquid; for viscosity: Falling or rolling sphere viscometry; for mass density: Vibrating tube method
[2] = refractive index (Na D-line) (dimensionless); details: 101.33 kPa, Liquid, Standard Abbe refractometry
[3] = xn = mol fraction of the nth substance listed; details: for surface tension liquid-gas: Capillary rise; for viscosity / mass density: Liquid; for viscosity: Falling or rolling sphere viscometry; for mass density: Vibrating tube method
[4] = refractive index (Na D-line) (dimensionless); xn = mol fraction of the nth substance listed; details: Liquid, Standard Abbe refractometry

Row | Compound | surface tension liquid-gas ([1]; 293.15 K) | viscosity ([1]; 293.15 K, 100.8 kPa) | mass density ([1]; 293.15 K, 100.8 kPa) | viscosity ([1]; 293.15 K, 101 kPa) | mass density ([1]; 293.15 K, 101 kPa) | surface tension liquid-gas ([1]; 303.15 K) | viscosity ([1]; 303.15 K, 100.8 kPa) | mass density ([1]; 303.15 K, 100.8 kPa) | viscosity ([1]; 303.15 K, 101 kPa) | mass density ([1]; 303.15 K, 101 kPa) | surface tension liquid-gas ([1]; 313.15 K) | viscosity ([1]; 313.15 K, 100.8 kPa) | mass density ([1]; 313.15 K, 100.8 kPa) | surface tension liquid-gas ([1]; 323.15 K) | viscosity ([1]; 323.15 K, 100.8 kPa) | mass density ([1]; 323.15 K, 100.8 kPa) | refractive index ([2]; 293.15 K) | refractive index ([2]; 303.15 K) | refractive index ([2]; 313.15 K) | refractive index ([2]; 323.15 K) | further results
1 | OCc1ccccc1 [benzenemethanol] | 39.2 ± 0.4 mN/m | 6.287 ± 0.054 mPa·s | 1045.44 ± 0.19 kg/m3 | 6.287 ± 0.054 mPa·s | 1045.44 ± 0.19 kg/m3 | 38.1 ± 0.4 mN/m | 4.579 ± 0.041 mPa·s | 1037.45 ± 0.18 kg/m3 | 4.579 ± 0.041 mPa·s | 1037.45 ± 0.18 kg/m3 | 37.2 ± 0.4 mN/m | 3.335 ± 0.031 mPa·s | 1029.61 ± 0.18 kg/m3 | 36.3 ± 0.4 mN/m | 2.545 ± 0.026 mPa·s | 1021.5 ± 0.18 kg/m3 | 1.54049 ± 0.001 | 1.53635 ± 0.001 | 1.53215 ± 0.001 | 1.52796 ± 0.001 | viscosity ([1]; 313.15 K, 101 kPa): 3.335 ± 0.031 mPa·s; mass density ([1]; 313.15 K, 101 kPa): 1029.61 ± 0.18 kg/m3; viscosity ([1]; 323.15 K, 101 kPa): 2.545 ± 0.026 mPa·s; mass density ([1]; 323.15 K, 101 kPa): 1021.5 ± 0.18 kg/m3
2 | OCc1ccccc1 [benzenemethanol] + CC(=O)OCc1ccccc1 |  |  |  |  |  |  |  |  |  |  |  |  |  |  |  |  |  |  |  |  | surface tension liquid-gas ([3]; 293.15 K, x2 = 0): 39.2 ± 0.4 mN/m; viscosity ([3]; 293.15 K, 101 kPa, x2 = 0): 6.287 ± 0.054 mPa·s; mass density ([3]; 293.15 K, 101 kPa, x2 = 0): 1045.44 ± 0.19 kg/m3; surface tension liquid-gas ([3]; 303.15 K, x2 = 0): 38.1 ± 0.4 mN/m; viscosity ([3]; 303.15 K, 101 kPa, x2 = 0): 4.579 ± 0.041 mPa·s; mass density ([3]; 303.15 K, 101 kPa, x2 = 0): 1037.45 ± 0.18 kg/m3; surface tension liquid-gas ([3]; 313.15 K, x2 = 0): 37.2 ± 0.4 mN/m; viscosity ([3]; 313.15 K, 101 kPa, x2 = 0): 3.335 ± 0.031 mPa·s; mass density ([3]; 313.15 K, 101 kPa, x2 = 0): 1029.61 ± 0.18 kg/m3; surface tension liquid-gas ([3]; 323.15 K, x2 = 0): 36.3 ± 0.4 mN/m; viscosity ([3]; 323.15 K, 101 kPa, x2 = 0): 2.545 ± 0.026 mPa·s; mass density ([3]; 323.15 K, 101 kPa, x2 = 0): 1021.5 ± 0.18 kg/m3; refractive index ([4]; 293.15 K, 101 kPa, x2 = 0): 1.54049 ± 0.00033; refractive index ([4]; 303.15 K, 101 kPa, x2 = 0): 1.53635 ± 0.00033; refractive index ([4]; 313.15 K, 101 kPa, x2 = 0): 1.53215 ± 0.00033; refractive index ([4]; 323.15 K, 101 kPa, x2 = 0): 1.52796 ± 0.00033
3 | CC(=O)OCc1ccccc1 [benzyl ethanoate] | 37.3 ± 0.5 mN/m | 2.324 ± 0.026 mPa·s | 1055.81 ± 0.3 kg/m3 | 2.324 ± 0.026 mPa·s | 1055.81 ± 0.3 kg/m3 | 35.6 ± 0.4 mN/m | 1.836 ± 0.023 mPa·s | 1046.74 ± 0.29 kg/m3 | 1.836 ± 0.023 mPa·s | 1046.74 ± 0.29 kg/m3 | 34.3 ± 0.4 mN/m | 1.474 ± 0.021 mPa·s | 1037.42 ± 0.29 kg/m3 | 33.2 ± 0.4 mN/m | 1.256 ± 0.02 mPa·s | 1027.51 ± 0.28 kg/m3 | 1.50245 ± 0.0011 | 1.49776 ± 0.0011 | 1.49309 ± 0.0011 | 1.48834 ± 0.0011 | viscosity ([1]; 313.15 K, 101 kPa): 1.474 ± 0.021 mPa·s; mass density ([1]; 313.15 K, 101 kPa): 1037.42 ± 0.29 kg/m3; viscosity ([1]; 323.15 K, 101 kPa): 1.256 ± 0.02 mPa·s; mass density ([1]; 323.15 K, 101 kPa): 1027.51 ± 0.28 kg/m3
4 | CCO [ethanol] | 22.3 ± 0.4 mN/m | 1.183 ± 0.018 mPa·s | 789.1 ± 0.19 kg/m3 |  |  | 21.4 ± 0.4 mN/m | 0.98 ± 0.018 mPa·s | 780.76 ± 0.2 kg/m3 |  |  | 20.6 ± 0.4 mN/m | 0.822 ± 0.017 mPa·s | 771.99 ± 0.2 kg/m3 | 19.4 ± 0.4 mN/m | 0.698 ± 0.017 mPa·s | 763.03 ± 0.2 kg/m3 | 1.36137 ± 0.001 | 1.35712 ± 0.001 | 1.35292 ± 0.001 | 1.34873 ± 0.001 | 
5 | CCO [ethanol] + CC(=O)OCc1ccccc1 |  |  |  |  |  |  |  |  |  |  |  |  |  |  |  |  |  |  |  |  | surface tension liquid-gas ([3]; 293.15 K, x1 = 1): 22.3 ± 0.4 mN/m; viscosity ([3]; 293.15 K, 100.8 kPa, x1 = 1): 1.183 ± 0.018 mPa·s; mass density ([3]; 293.15 K, 100.8 kPa, x1 = 1): 789.1 ± 0.19 kg/m3; surface tension liquid-gas ([3]; 303.15 K, x1 = 1): 21.4 ± 0.4 mN/m; viscosity ([3]; 303.15 K, 100.8 kPa, x1 = 1): 0.98 ± 0.018 mPa·s; mass density ([3]; 303.15 K, 100.8 kPa, x1 = 1): 780.76 ± 0.2 kg/m3; surface tension liquid-gas ([3]; 313.15 K, x1 = 1): 20.6 ± 0.4 mN/m; viscosity ([3]; 313.15 K, 100.8 kPa, x1 = 1): 0.822 ± 0.017 mPa·s; mass density ([3]; 313.15 K, 100.8 kPa, x1 = 1): 771.99 ± 0.2 kg/m3; surface tension liquid-gas ([3]; 323.15 K, x1 = 1): 19.4 ± 0.4 mN/m; viscosity ([3]; 323.15 K, 100.8 kPa, x1 = 1): 0.698 ± 0.017 mPa·s; mass density ([3]; 323.15 K, 100.8 kPa, x1 = 1): 763.03 ± 0.2 kg/m3; refractive index ([4]; 293.15 K, 100.8 kPa, x1 = 1): 1.36137 ± 0.001; refractive index ([4]; 303.15 K, 100.8 kPa, x1 = 1): 1.35712 ± 0.001; refractive index ([4]; 313.15 K, 100.8 kPa, x1 = 1): 1.35292 ± 0.001; refractive index ([4]; 323.15 K, 100.8 kPa, x1 = 1): 1.34873 ± 0.001
6 | CCO [ethanol] + OCc1ccccc1 |  |  |  |  |  |  |  |  |  |  |  |  |  |  |  |  |  |  |  |  | surface tension liquid-gas ([3]; 293.15 K, x1 = 1): 22.3 ± 0.4 mN/m; viscosity ([3]; 293.15 K, 100.8 kPa, x1 = 1): 1.183 ± 0.018 mPa·s; mass density ([3]; 293.15 K, 100.8 kPa, x1 = 1): 789.1 ± 0.2 kg/m3; surface tension liquid-gas ([3]; 303.15 K, x1 = 1): 21.4 ± 0.4 mN/m; viscosity ([3]; 303.15 K, 100.8 kPa, x1 = 1): 0.98 ± 0.018 mPa·s; mass density ([3]; 303.15 K, 100.8 kPa, x1 = 1): 780.76 ± 0.2 kg/m3; surface tension liquid-gas ([3]; 313.15 K, x1 = 1): 20.6 ± 0.4 mN/m; viscosity ([3]; 313.15 K, 100.8 kPa, x1 = 1): 0.822 ± 0.017 mPa·s; mass density ([3]; 313.15 K, 100.8 kPa, x1 = 1): 771.99 ± 0.2 kg/m3; surface tension liquid-gas ([3]; 323.15 K, x1 = 1): 19.4 ± 0.4 mN/m; viscosity ([3]; 323.15 K, 100.8 kPa, x1 = 1): 0.698 ± 0.017 mPa·s; mass density ([3]; 323.15 K, 100.8 kPa, x1 = 1): 763.03 ± 0.2 kg/m3; refractive index ([4]; 293.15 K, 100.8 kPa, x1 = 1): 1.36137 ± 0.001; refractive index ([4]; 303.15 K, 100.8 kPa, x1 = 1): 1.35712 ± 0.001; refractive index ([4]; 313.15 K, 100.8 kPa, x1 = 1): 1.35292 ± 0.001; refractive index ([4]; 323.15 K, 100.8 kPa, x1 = 1): 1.34873 ± 0.001
